Activity calls are given as the source filed them. No cut-off for these calls is given here.
Legend:
[1] = tested on: AHH-1; experiment: Cytotoxicity against human AHH-1 cells assessed as inhibition of cell growth incubated for 24 hrs by CCK-8 assay; format: functional, cell-based; conditions: AHH-1, 24 h
[2] = tested on: AHH-1; experiment: Anti-iradiation activity against human AHH-1 cells assessed as cell viability at 10 micromol preincubated with compound for 24 hrs followed by irradiation with 8 Gy and measured after 24 hrs by CCK-8 assay; format: functional; conditions: dose 10 µmol; time 48 hrs
[3] = tested on: Mus musculus; experiment: Radioprotective activity in C57BL/6J mouse assessed as survival rate at 30 mg/kg, ip preincubated with compound for 15 to 1440 mins followed by irradiation and measured at day 30; format: functional; conditions: light or radiation study, time 15-44640 min
[4] = tested on: Mus musculus; experiment: Radioprotective activity in irradiated C57BL/6J mouse model assessed as increase in RBC count at 300 mg/kg, ip preincubated with compound for 15 to 1440 mins followed by irradiation with 6.5 Gy and measured after 10 to 13 days of radiation; format: functional, organism-based; conditions: Erythrocyte
[5] = tested on: Mus musculus; experiment: Radioprotective activity in irradiated C57BL/6J mouse model assessed as increase in HGB count at 300 mg/kg, ip preincubated with compound for 15 to 1440 mins followed by irradiation with 6.5 Gy and measured after 1 to 10 days of radiation; format: functional, organism-based
[6] = tested on: AHH-1; experiment: Induction of apoptosis in human AHH-1 cells assessed as necrotic cells preincubated with compound for 24 hrs followed by irradiation with 6 Gy and measured after 24 hrs of radiation by Annexin V-FITC/PI staining based flow cytometry analysis (reference value: 3.71%); format: functional; conditions: time 48 hrs
[7] = tested on: AHH-1; experiment: Induction of apoptosis in human AHH-1 cells assessed as early apoptotic cells preincubated with compound for 24 hrs followed by irradiation with 4 Gy and measured after 24 hrs of radiation by Annexin V-FITC/PI staining based flow cytometry analysis (reference value: 14.3%); format: functional; conditions: time 48 hrs
[8] = tested on: AHH-1; experiment: Induction of apoptosis in human AHH-1 cells assessed as viable cells preincubated with compound for 24 hrs followed by irradiation with 8 Gy and measured after 24 hrs of radiation by Annexin V-FITC/PI staining based flow cytometry analysis (reference value: 45.1%); format: functional; conditions: time 48 hrs
[9] = tested on: Mus musculus; experiment: Radioprotective activity in irradiated C57BL/6J mouse model assessed as increase in HGB count at 300 mg/kg, ip preincubated with compound for 15 to 1440 mins followed by irradiation with 6.5 Gy and measured after 13 days of radiation; format: functional, organism-based; conditions: time 15-20160 min
[10] = tested on: AHH-1; experiment: Induction of apoptosis in human AHH-1 cells assessed as viable cells preincubated with compound for 24 hrs followed by irradiation with 4 Gy and measured after 24 hrs of radiation by Annexin V-FITC/PI staining based flow cytometry analysis (reference value: 66.9 %); format: functional; conditions: time 48 hrs
[11] = tested on: Mus musculus; experiment: Radioprotective activity in irradiated C57BL/6J mouse model assessed as increase in platelets count at 300 mg/kg, ip preincubated with compound for 15 to 1440 mins followed by irradiation with 6.5 Gy and measured after 2 days of radiation; format: functional, organism-based; conditions: time 15-4320 min
[12] = tested on: AHH-1; experiment: Induction of apoptosis in human AHH-1 cells assessed as late apoptotic cells preincubated with compound for 24 hrs followed by irradiation with 6 Gy and measured after 24 hrs of radiation by Annexin V-FITC/PI staining based flow cytometry analysis (reference value: 29.8%); format: functional; conditions: time 48 hrs
[13] = tested on: AHH-1; experiment: Induction of apoptosis in human AHH-1 cells assessed as early apoptotic cells preincubated with compound for 24 hrs followed by irradiation with 6 Gy and measured after 24 hrs of radiation by Annexin V-FITC/PI staining based flow cytometry analysis (reference value: 14.1%); format: functional; conditions: time 48 hrs
[14] = tested on: Mus musculus; experiment: Radioprotective activity in irradiated C57BL/6J mouse model assessed as increase in platelets count at 300 mg/kg, ip preincubated with compound for 15 to 1440 mins followed by irradiation with 6.5 Gy and measured after 3 to 10 days of radiation; format: functional, organism-based
[15] = tested on: Mus musculus; experiment: Radioprotective activity in irradiated C57BL/6J mouse model assessed as increase in WBC count at 300 mg/kg, ip preincubated with compound for 15 to 1440 mins followed by irradiation with 6.5 Gy and measured on day 1 (reference value: 43.39%); format: functional; conditions: time 15-2880 min
[16] = tested on: AHH-1; experiment: Induction of apoptosis in human AHH-1 cells assessed as late apoptotic cells preincubated with compound for 24 hrs followed by irradiation with 4 Gy and measured after 24 hrs of radiation by Annexin V-FITC/PI staining based flow cytometry analysis (reference value: 17.7%); format: functional; conditions: time 48 hrs
[17] = tested on: AHH-1; experiment: Induction of apoptosis in human AHH-1 cells assessed as necrotic cells preincubated with compound for 24 hrs followed by irradiation with 4 Gy and measured after 24 hrs of radiation by Annexin V-FITC/PI staining based flow cytometry analysis (reference value: 1.06%); format: functional; conditions: time 48 hrs
[18] = tested on: AHH-1; experiment: Induction of apoptosis in human AHH-1 cells assessed as viable cells preincubated with compound for 24 hrs followed by irradiation with 6 Gy and measured after 24 hrs of radiation by Annexin V-FITC/PI staining based flow cytometry analysis (reference value: 52.3%); format: functional; conditions: time 48 hrs
[19] = tested on: AHH-1; experiment: Induction of apoptosis in human AHH-1 cells assessed as late apoptotic cells preincubated with compound for 24 hrs followed by irradiation with 8 Gy and measured after 24 hrs of radiation by Annexin V-FITC/PI staining based flow cytometry analysis (reference value: 33.6%); format: functional; conditions: time 48 hrs
[20] = tested on: Mus musculus; experiment: Radioprotective activity in irradiated C57BL/6J mouse model assessed as increase in platelets count at 300 mg/kg, ip preincubated with compound for 15 to 1440 mins followed by irradiation with 6.5 Gy and measured after 10 to 13 days of radiation; format: functional, organism-based
[21] = tested on: Mus musculus; experiment: Radioprotective activity in irradiated C57BL/6J mouse model assessed as increase in RBC count at 300 mg/kg, ip preincubated with compound for 15 to 1440 mins followed by irradiation with 6.5 Gy and measured after 13 days of radiation; format: functional, organism-based; conditions: Erythrocyte, time 15-20160 min
[22] = tested on: AHH-1; experiment: Induction of apoptosis in human AHH-1 cells assessed as early apoptotic cells preincubated with compound for 24 hrs followed by irradiation with 8 Gy and measured after 24 hrs of radiation by Annexin V-FITC/PI staining based flow cytometry analysis (reference value: 16.5%); format: functional; conditions: time 48 hrs
[23] = tested on: AHH-1; experiment: Induction of apoptosis in human AHH-1 cells assessed as necrotic cells preincubated with compound for 24 hrs followed by irradiation with 8 Gy and measured after 24 hrs of radiation by Annexin V-FITC/PI staining based flow cytometry analysis (reference value: 4.86%); format: functional; conditions: time 48 hrs

Fc1ccc(CSc2ccc3cc(F)ccc3n2)cc1
IC50 [1]: > 640 µM

[O-][S+](Cc1ccc(Cl)cc1)c1ccc2cc(Br)ccc2n1 (centres undefined)
Activity [2]: 30.63%
IC50 [1]: 224 µM

Fc1ccc2nc(SCc3ccccc3)ccc2c1
IC50 [1]: > 640 µM

O=S(=O)(Cc1ccc(F)cc1)c1ccc2cc(Cl)ccc2n1
IC50 [1]: > 640 µM

O=S(=O)(Cc1ccc(F)cc1)c1ccc2cc(Br)ccc2n1
IC50 [1]: > 640 µM

O=S(=O)(Cc1ccc(Br)cc1)c1ccc2cc(Br)ccc2n1
IC50 [1]: > 640 µM

O=C(O)c1ccc(C[S+]([O-])c2ccc3cc(F)ccc3n2)cc1 (centres undefined)
Activity [2]: 30.18%
survival at 30 mg/kg [3]: 50%
IC50 [1]: > 640 µM

Fc1ccc(CSc2ccc3cc(Br)ccc3n2)cc1
Activity [2]: 26.21%
IC50 [1]: > 640 µM

[O-][S+](Cc1ccc(Cl)cc1)c1ccc2cc(Cl)ccc2n1 (centres undefined)
IC50 [1]: > 640 µM

Fc1ccc(CSc2ccc3ccccc3n2)cc1
IC50 [1]: > 640 µM

O=C(O)c1ccc(CSc2ccc3cc(Cl)ccc3n2)cc1
IC50 [1]: > 640 µM

Brc1ccc(CSc2ccc3ccccc3n2)cc1
IC50 [1]: 174 µM

O=S(=O)(Cc1ccccc1)c1ccc2cc(F)ccc2n1
IC50 [1]: > 640 µM

N#Cc1ccc(CS(=O)(=O)c2ccc3cc(Cl)ccc3n2)cc1
IC50 [1]: > 640 µM

O=C(O)c1ccc(CS(=O)(=O)c2ccc3cc(F)ccc3n2)cc1
IC50 [1]: > 640 µM

[O-][S+](Cc1ccc(Br)cc1)c1ccc2cc(Br)ccc2n1 (centres undefined)
IC50 [1]: > 640 µM

O=S(=O)(Cc1ccc(Br)cc1)c1ccc2ccccc2n1
IC50 [1]: > 640 µM

Brc1ccc2nc(SCc3ccccc3)ccc2c1
IC50 [1]: > 640 µM

[O-][S+](Cc1ccc(Br)cc1)c1ccc2ccccc2n1 (centres undefined)
IC50 [1]: > 640 µM

[O-][S+](Cc1ccc(F)cc1)c1ccc2cc(F)ccc2n1 (centres undefined)
IC50 [1]: > 640 µM

O=S(=O)(Cc1ccc(Br)cc1)c1ccc2cc(Cl)ccc2n1
IC50 [1]: > 640 µM

[O-][S+](Cc1ccccc1)c1ccc2cc(Br)ccc2n1 (centres undefined)
IC50 [1]: > 640 µM

Clc1ccc(CSc2ccc3ccccc3n2)cc1
IC50 [1]: 73 µM

[O-][S+](Cc1ccc(Cl)cc1)c1ccc2ccccc2n1 (centres undefined)
IC50 [1]: 97 µM

Clc1ccc(CSc2ccc3cc(Cl)ccc3n2)cc1
IC50 [1]: > 640 µM

[O-][S+](Cc1ccc(F)cc1)c1ccc2cc(Cl)ccc2n1 (centres undefined)
IC50 [1]: > 640 µM

N#Cc1ccc(CSc2ccc3cc(Cl)ccc3n2)cc1
IC50 [1]: > 640 µM

Fc1ccc(CSc2ccc3cc(Cl)ccc3n2)cc1
IC50 [1]: 153 µM

O=S(=O)(Cc1ccc(Cl)cc1)c1ccc2cc(Cl)ccc2n1
IC50 [1]: > 640 µM

Brc1ccc(CSc2ccc3cc(Br)ccc3n2)cc1
IC50 [1]: > 640 µM

[O-][S+](Cc1ccc(F)cc1)c1ccc2ccccc2n1 (centres undefined)
IC50 [1]: > 640 µM

N#Cc1ccc(C[S+]([O-])c2ccc3cc(Cl)ccc3n2)cc1 (centres undefined)
IC50 [1]: > 640 µM

N#Cc1ccc(CSc2ccc3cc(Br)ccc3n2)cc1
IC50 [1]: 146 µM

O=S(=O)(Cc1ccccc1)c1ccc2cc(Br)ccc2n1
IC50 [1]: 169 µM

O=S(=O)(Cc1ccc(Cl)cc1)c1ccc2cc(Br)ccc2n1
Activity [2]: 27.81%
IC50 [1]: > 640 µM

Clc1ccc(CSc2ccc3cc(Br)ccc3n2)cc1
IC50 [1]: 215 µM

O=S(=O)(Cc1ccc(Cl)cc1)c1ccc2ccccc2n1
IC50 [1]: 129 µM

Clc1ccc2nc(SCc3ccc(Br)cc3)ccc2c1
IC50 [1]: > 640 µM

O=C([O-])c1ccc(/C=C/S(=O)(=O)Cc2ccc(Cl)cc2)cc1.[Na+] [RECILISIB SODIUM]
Activity [4]: Active
Activity [5]: inactive
Activity [6]: 7.68%
Activity [7]: 16.5%
Activity [8]: 48%
Activity [9]: Active
Activity [10]: 47.5%
Activity [11]: Active
Activity [12]: 28.4%
Activity [13]: 14.8%
Activity [14]: inactive
Activity [15]: 47.73%
Activity [16]: 31.1%
Activity [17]: 4.82%
Activity [18]: 49.2%
Activity [19]: 27.3%
survival at 30 mg/kg [3]: 40%
Activity [20]: Active
Activity [21]: Active
IC50 [1]: > 640 µM
Activity [22]: 16.4%
Activity [23]: 8.35%

[O-][S+](Cc1ccc(Br)cc1)c1ccc2cc(Cl)ccc2n1 (centres undefined)
IC50 [1]: > 640 µM

N#Cc1ccc(C[S+]([O-])c2ccc3cc(Br)ccc3n2)cc1 (centres undefined)
IC50 [1]: 212 µM

O=S(=O)(Cc1ccc(F)cc1)c1ccc2cc(F)ccc2n1
Activity [2]: 27.51%
IC50 [1]: > 640 µM

From ChEMBL document CHEMBL5505982, “Design, synthesis, biological evaluation and in silico studies of novel quinoline derivatives as potential radioprotective molecules targeting the TLR2 and p53 pathways” (Eur J Med Chem, 2024)
